Experiments:
[1] = system: control sera (pooled serum of ten healthy LUMC hospital workers; commercial negative donor pooled serum from the Dutch bloodbank); assay type: binding, human; design: Binding of Control serum LUMC to linear peptides / Binding of Control serum Blood-bank to linear peptides / Binding of Control serum LUMC to looped peptides / Binding of Control Serum Blood-Bank to Looped peptides / Binding of Control serum LUMC to linear peptides of the protein M of SARS-CoV Urbani / Binding of Control serum Blood-bank to linear peptides of the protein M of SARS-CoV Urbani / Binding of Control serum LUMC to looped peptides of the protein M of SARS-CoV Urbani / Binding of Control Serum Blood-Bank to Looped peptides of the protein M of SARS-CoV Urbani: unit not given here
[2] = system: rabbit serum obtained by immunizing a rabbit with the SARS-CoV strain Frankfurt 1; assay type: binding; design: Binding of a rabbit serum to linear peptides / Binding of a rabbit serum to looped peptides / Rabbit serum linear peptides / Rabbit serum looped peptides / Binding of a rabbit serum to linear peptides of protein N of SARS-CoV Urbani (Rabbit serum linear peptides) / Binding of a rabbit serum to looped/cyclic peptides of protein N of SARS-CoV Urbani (Rabbit serum looped peptides): unit not given here
[3] = system: antibodies in sera from SARS patients (sera 1a, 1b, 2, 6, 37, 62, London, SARS-yellow, SARS-green); assay type: binding, human; design: Binding of serum 6 to linear peptides of protein X1 of SARS-CoV Urbani / Binding of serum 37 to linear peptides of protein X1 of SARS-CoV Urbani / Binding of serum 6 to looped/cyclic peptide (PEPSCAN-ELISA) / Binding of serum 37 to looped/cyclic peptide (PEPSCAN-ELISA) / Binding of serum 37 to looped/cyclic peptides of protein X1 of SARS-CoV Urbani / Binding of serum 6 to linear peptides of protein X2 / Binding of serum 37 to linear peptides of protein X2 / Binding of serum 37 to looped/cyclic peptides of protein X2 of SARS-CoV Urbani / Binding of serum 6 to linear peptides of protein M of SARS-CoV Urbani / Binding of serum 37 to linear peptides of protein M of SARS-CoV Urbani / Binding of serum 6 to looped/cyclic peptides of protein M of SARS-CoV Urbani / Binding of serum 37 to looped/cyclic peptides of protein M of SARS-CoV Urbani / Binding of serum 6 to linear peptides of protein X3 of SARS-CoV Urbani / Binding of serum 37 to linear peptides of protein X3 of SARS-CoV Urbani / Binding of serum 37 to looped/cyclic peptides of protein X3 of SARS-CoV Urbani / Binding of serum 6 to linear peptides of protein X4 of SARS-CoV Urbani / Binding of serum 37 to linear peptides of protein X4 of SARS-CoV Urbani / Binding of serum 37 to looped/cyclic peptides of protein X4 of SARS-CoV Urbani / Binding of serum 6 to linear peptides of protein X5 of SARS-CoV Urbani / Binding of serum 37 to linear peptides of protein X5 of SARS-CoV Urbani / Binding of serum 37 to looped/cyclic peptides of protein X5 of SARS-CoV Urbani / Binding of serum 6 to linear peptides of protein N of SARS-CoV Urbani / Binding of serum 37 to linear peptides of protein N of SARS-CoV Urbani / Binding of serum 6 to linear peptide (PEPSCAN-ELISA) / Binding of serum 1a to looped/cyclic peptides of protein N of SARS-CoV Urbani / Binding of serum 1b to looped/cyclic peptides of protein N of SARS-CoV Urbani / Binding of serum 2 to looped/cyclic peptides of protein N of SARS-CoV Urbani / Binding of serum 6 to looped/cyclic peptides of protein N of SARS-CoV Urbani / Binding of serum 37 to looped/cyclic peptides of protein N of SARS-CoV Urbani / Binding of serum 62 to looped/cyclic peptides of protein N of SARS-CoV Urbani / Binding of serum London to looped/cyclic peptides of protein N of SARS-CoV Urbani / Binding of serum SARS-green to looped/cyclic peptides of protein N of SARS-CoV Urbani: unit not given here

With YSTAWLCALGKVLPF the “Binding of Control Serum Blood-Bank to Looped peptides” value [1] was 0.4, the “Binding of Control serum Blood-bank to linear peptides” value [1] was 0.8 and the “Binding of Control serum LUMC to linear peptides” value [1] was 0.5. For the same sequence, the “Binding of Control serum LUMC to looped peptides” value [1] was 0.5, the “Rabbit serum linear peptides” value [2] was 0.7 and the “Rabbit serum looped peptides” value [2] was 1.0. The “Binding of serum 1a to linear peptides of protein X5 of SARS-CoV Urbani” value [3] was 0.7, the “Binding of serum 1a to looped/cyclic peptides of protein X5 of SARS-CoV Urbani” value [3] was 0.5 and the “Binding of serum 1b to linear peptides of protein X5 of SARS-CoV Urbani” value [3] was 0.6. The “Binding of serum 1b to looped/cyclic peptides of protein X5 of SARS-CoV Urbani” value [3] was 0.3, the “Binding of serum 2 to linear peptides of protein X5 of SARS-CoV Urbani” value [3] was 0.7 and the “Binding of serum 2 to looped/cyclic peptides of protein X5 of SARS-CoV Urbani” value [3] was 0.5. The “Binding of serum 6 to linear peptides of protein X5 of SARS-CoV Urbani” value [3] was 0.6, the “Binding of serum 6 to looped/cyclic peptides of protein X5 of SARS-CoV Urbani” value [3] was 0.6 and the “Binding of serum 37 to linear peptides of protein X5 of SARS-CoV Urbani” value [3] was 0.6. For the same sequence, the “Binding of serum 37 to looped/cyclic peptides of protein X5 of SARS-CoV Urbani” value [3] was 0.5, the “Binding of serum 62 to linear peptides of protein X5 of SARS-CoV Urbani” value [3] was 0.8 and the “Binding of serum 62 to looped/cyclic peptides of protein X5 of SARS-CoV Urbani” value [3] was 0.8. For the same sequence, the “Binding of serum London to linear peptides of protein X5 of SARS-CoV Urbani” value [3] was 0.8, the “Binding of serum London to looped/cyclic peptides of protein X5 of SARS-CoV Urbani” value [3] was 0.4 and the “Binding of serum SARS-green to linear peptides of protein X5 of SARS-CoV Urbani” value [3] was 0.5. The “Binding of serum SARS-green to looped/cyclic peptides of protein X5 of SARS-CoV Urbani” value [3] was 0.2, the “Binding of serum SARS-yellow to linear peptides of protein X5 of SARS-CoV Urbani” value [3] was 0.4 and the “Binding of serum SARS-yellow to looped/cyclic peptides of protein X5 of SARS-CoV Urbani” value [3] was 0.9.
In the case of FAAYNRYRIGNYKLN, the “Binding of Control Serum Blood-Bank to Looped peptides of the protein M of SARS-CoV Urbani” value [1] is reported as 0.6, the “Binding of Control serum Blood-bank to linear peptides of the protein M of SARS-CoV Urbani” value [1] is reported as 0.7 and the “Binding of Control serum LUMC to linear peptides of the protein M of SARS-CoV Urbani” value [1] is reported as 0.3. For the same sequence, the “Binding of Control serum LUMC to looped peptides of the protein M of SARS-CoV Urbani” value [1] was 0.7, the “Rabbit serum linear peptides” value [2] was 0.3 and the “Rabbit serum looped peptides” value [2] was 0.6. The “Binding of serum 1a to linear peptides of protein M of SARS-CoV Urbani” value [3] was 0.6, the “Binding of serum 1a to looped/cyclic peptides of protein M of SARS-CoV Urbani” value [3] was 0.8 and the “Binding of serum 1b to linear peptides of protein M of SARS-CoV Urbani” value [3] was 0.3. For the same sequence, the “Binding of serum 1b to looped/cyclic peptides of protein M of SARS-CoV Urbani” value [3] was 0.4, the “Binding of serum 2 to linear peptides of protein M of SARS-CoV Urbani” value [3] was 0.5 and the “Binding of serum 2 to looped/cyclic peptides of protein M of SARS-CoV Urbani” value [3] was 0.7. For the same sequence, the “Binding of serum 6 to linear peptides of protein M of SARS-CoV Urbani” value [3] was 0.4, the “Binding of serum 6 to looped/cyclic peptides of protein M of SARS-CoV Urbani” value [3] was 1.3 and the “Binding of serum 37 to linear peptides of protein M of SARS-CoV Urbani” value [3] was 0.5. For the same sequence, the “Binding of serum 37 to looped/cyclic peptides of protein M of SARS-CoV Urbani” value [3] was 0.6, the “Binding of serum 62 to linear peptides of protein M of SARS-CoV Urbani” value [3] was 0.7 and the “Binding of serum 62 to looped/cyclic peptides of protein M of SARS-CoV Urbani” value [3] was 0.6. For the same sequence, the “Binding of serum London to linear peptides of protein M of SARS-CoV Urbani” value [3] was 0.3, the “Binding of serum London to looped/cyclic peptides of protein M of SARS-CoV Urbani” value [3] was 0.7 and the “Binding of serum SARS-green to linear peptides of protein M of SARS-CoV Urbani” value [3] was 0.2. The “Binding of serum SARS-green to looped/cyclic peptides of protein M of SARS-CoV Urbani” value [3] was 0.2, the “Binding of serum SARS-yellow to linear peptides of protein M of SARS-CoV Urbani” value [3] was 0.0 and the “Binding of serum SARS-yellow to looped/cyclic peptides of protein M of SARS-CoV Urbani” value [3] was 0.8.
With TRHTYQLRARSVSPK the “Binding of Control Serum Blood-Bank to Looped peptides” value [1] was 0.7, the “Binding of Control serum Blood-bank to linear peptides” value [1] was 0.9 and the “Binding of Control serum LUMC to linear peptides” value [1] was 0.9. The “Binding of Control serum LUMC to looped peptides” value [1] was 0.7, the “Recognition of the peptide by the rabbit serum” value [2] was “recognized” and the “Binding of serum 1a to linear peptides of protein X4 of SARS-CoV Urbani” value [3] was 0.8. For the same sequence, the “Binding of serum 1a to looped/cyclic peptides of protein X4 of SARS-CoV Urbani” value [3] was 0.8, the “Binding of serum 1b to linear peptides of protein X4 of SARS-CoV Urbani” value [3] was 0.7 and the “Binding of serum 1b to looped/cyclic peptides of protein X4 of SARS-CoV Urbani” value [3] was 0.4. The “Binding of serum 2 to linear peptides of protein X4 of SARS-CoV Urbani” value [3] was 0.7, the “Binding of serum 2 to looped/cyclic peptides of protein X4 of SARS-CoV Urbani” value [3] was 0.8 and the “Binding of serum 6 to linear peptides of protein X4 of SARS-CoV Urbani” value [3] was 1.3. The “Binding of serum 6 to looped/cyclic peptides of protein X4 of SARS-CoV Urbani” value [3] was 0.9, the “Binding of serum 37 to linear peptides of protein X4 of SARS-CoV Urbani” value [3] was 1.0 and the “Binding of serum 37 to looped/cyclic peptides of protein X4 of SARS-CoV Urbani” value [3] was 0.7. For the same sequence, the “Binding of serum 62 to linear peptides of protein X4 of SARS-CoV Urbani” value [3] was 0.9, the “Binding of serum 62 to looped/cyclic peptides of protein X4 of SARS-CoV Urbani” value [3] was 0.6 and the “Binding of serum London to linear peptides of protein X4 of SARS-CoV Urbani” value [3] was 0.8. The “Binding of serum London to looped/cyclic peptides of protein X4 of SARS-CoV Urbani” value [3] was 0.4, the “Binding of serum SARS-green to linear peptides of protein X4 of SARS-CoV Urbani” value [3] was 0.6 and the “Binding of serum SARS-green to looped/cyclic peptides of protein X4 of SARS-CoV Urbani” value [3] was 0.7. For the same sequence, the “Binding of serum SARS-yellow to linear peptides of protein X4 of SARS-CoV Urbani” value [3] was 0.9 and the “Binding of serum SARS-yellow to looped/cyclic peptides of protein X4 of SARS-CoV Urbani” value [3] was 0.7.

— patent US20070128217A1 (priority 2003, published 2007)
